Laboratory results published in patent US9491933B2, “Infected nail of animal infected with fungus” (POLA PHARMA, INC., priority 2007, dated 2016).

Assay: Rabbit immunity suppression: body weight change after administration of the immunosuppressive agent
Type: in vivo, Japanese white rabbit
Settings: 4 mg/kg per dose to femoral muscle once a week; 2 weeks after starting the administration; average of 15 rabbits
Procedure: 14 week old Japanese white rabbits (Kbl: JW, Kitayama Labes Co., Ltd.) were quarantined and acclimatized for 1 week. After acclimatization, a long-acting methylprednisolone acetate preparation (Depo Melcort, Fuji Pharma Co., Ltd.) was administered as an immunosuppressive agent to femoral muscle a total of three times, with 4 mg/kg as the amount administered in one dose, at intervals of once a week. […] At a point 2 weeks after starting the administration, at which the average of the weights of a total of 15 rabbits had decreased by about 6% from the weight prior to administration, inoculation with a fungal liquid was carried out.

SMILES: CC(=O)OCC(=O)[C@@]1(O)CC[C@H]2[C@@H]3C[C@H](C)C4=CC(=O)C=C[C@]4(C)[C@H]3[C@@H](O)C[C@@]21C [methylprednisolone acetate]
- decrease of average weight from the weight prior to administration (indicator of immunocompromise): about 6%
